Details: 323.15 K, Liquid, Vibrating tube method

CCCCCCCCCC [decane]
Details	mass density [kg/m3]
13966 kPa	719
13981 kPa	719.1
14001 kPa	719
14021 kPa	719
14043 kPa	719
14066 kPa	719.2
14084 kPa	719.2
14099 kPa	719.1
14124 kPa	719.2
14140 kPa	719.3
14160 kPa	719.2
14173 kPa	719.2
14274 kPa	719.2
14317 kPa	719.3
14348 kPa	719.5
14364 kPa	719.3
14385 kPa	719.4
14404 kPa	719.4
14424 kPa	719.4
14622 kPa	719.6
14631 kPa	719.5
14647 kPa	719.5
14657 kPa	719.7
14679 kPa	719.6
14688 kPa	719.6
14701 kPa	719.6
14711 kPa	719.7
14725 kPa	719.7
14741 kPa	719.6
14753 kPa	719.7
15015 kPa	719.9
15023 kPa	719.9
15033 kPa	719.8
15047 kPa	720
15058 kPa	719.9
15068 kPa	719.9
15085 kPa	720
15095 kPa	719.9
15112 kPa	720
15120 kPa	719.9
15130 kPa	719.9
15143 kPa	720.1
15159 kPa	720
15170 kPa	720
15184 kPa	720
15196 kPa	720.1
15211 kPa	720
15222 kPa	720
15237 kPa	720
15249 kPa	720
15266 kPa	720.1
15275 kPa	720.1
15286 kPa	720
15303 kPa	720.2
15312 kPa	720.1
15326 kPa	720.1
15340 kPa	720.2
15388 kPa	720.2
15397 kPa	720.2
15411 kPa	720.2
15423 kPa	720.2
15686 kPa	720.4
15697 kPa	720.5
15712 kPa	720.4
15721 kPa	720.5
16291 kPa	721
16333 kPa	721
16345 kPa	721.1
16357 kPa	720.9
16371 kPa	721.1
16383 kPa	720.9
16398 kPa	721.1
16410 kPa	720.9
16426 kPa	721.1
16436 kPa	721.1
16448 kPa	721.1
16460 kPa	721.2
16473 kPa	721
16595 kPa	721.1
16627 kPa	721.2
16637 kPa	721.2
16673 kPa	721.2
16691 kPa	721.2
16708 kPa	721.1
16721 kPa	721.3
16735 kPa	721.2
16752 kPa	721.2
16764 kPa	721.2
16784 kPa	721.3
16797 kPa	721.3
16817 kPa	721.4
16829 kPa	721.3
16849 kPa	721.4
16864 kPa	721.5
16876 kPa	721.4
16889 kPa	721.3
16910 kPa	721.3
16921 kPa	721.4
16934 kPa	721.4
16951 kPa	721.4
16964 kPa	721.4
16980 kPa	721.5
16995 kPa	721.4
17043 kPa	721.5
17058 kPa	721.4
17077 kPa	721.6
17095 kPa	721.5
17112 kPa	721.4
17130 kPa	721.6
17141 kPa	721.5
17157 kPa	721.6
17172 kPa	721.4
17190 kPa	721.6
17203 kPa	721.6
17223 kPa	721.6
17241 kPa	721.6
17254 kPa	721.7
17628 kPa	722
18716 kPa	722.8
18779 kPa	722.8
18862 kPa	722.9
18883 kPa	722.8
19079 kPa	723
19095 kPa	723.2
19120 kPa	723
19140 kPa	723.1
19159 kPa	723.1
19176 kPa	723.2
19198 kPa	723.2
19220 kPa	723.2
19240 kPa	723.2
19286 kPa	723.3
19330 kPa	723.3
19527 kPa	723.5
19547 kPa	723.4
19614 kPa	723.5
19699 kPa	723.6
